Test results: patent US9714266B2, “Estra-1,3,5(10),16-tetraene-3-carboxamides for inhibition of 17β-hydroxysteroid dehydrogenase (AKR1C3)” (priority 2013, dated 2017)
Converted amounts (≈) assume the structure as drawn. “And” between values parts separate entries of the source, which are not always exact repeats. Identical values can stand only once. Like-named read-outs stand apart in the source and are kept apart here.

Columns and labels:
AKR1C3 [1] = molecular target: T1, AKR1C3 (Homo sapiens (Human), UniProt P42330); experiment: AKR1C3 enzyme assay (coumberone reduction, fluorescence); format: biochemical; settings: recombinant human AKR1C3, coumberone 0.3 μM, NADPH 10 μM; read-out: AKR1C3 enzyme inhibition IC50
Protocol: The AKR1C3-inhibitory action of the substances of this invention was measured in the AKR1C3 assay described in the paragraphs which follow. Essentially, the enzyme activity is measured by quantifying the coumberol formed from coumberone ([…]., and […]. AM. CHEM. SOC. 130, 14123-14128 (2008) […]., Bauman, D. R., Penning, T. M., and […]., Proc. Natl. Acad. Sci. USA 103, 13304-13309 (2006)). In this assay, the increase in the highly fluorescent coumberol can be determined by NADPH (nicotinamide adenine dinucleotide phosphate)-dependent reduction of the nonfluorescent coumberone by AKR1C3. […] NM_003739). This was expressed as the GST (glutathione S-transferase) fusion protein in E. coli and purified by means of glutathione-Sepharose affinity chromatography. The GST was removed by thrombin digestion with subsequent size exclusion chromatography (Dufort, I., Rheault, P., Huang, X F., Soucy, P., and Luu-The, V., Endocrinology 140, 568-574 (1999)). […] The concentration of the AKR1C3 was matched to the respective activity of the enzyme preparation and set such that the assay worked within the linear range. Typical concentrations were in the region of 1 nM. The reaction was stopped by adding 5 μl of a stop solution consisting of the inhibitor EM-1404 [F. Labrie et al. U.S. Pat. […] Subsequently, the fluorescence of coumberol was measured at 520 nm (excitation at 380 nm) with a suitable measuring instrument (Pherastar from BMG Labtechnologies).

AKR1C3 [2] = molecular target: T1, AKR1C3; experiment: AKR1C3 inhibition in a cell-based system (transfected HEK293 cells, coumberol fluorescence); settings: HEK293 cells transfected with AKR1C3 expression plasmid; read-out: Cellular AKR1C3 inhibition IC50
Protocol: The inhibition of AKR1C3 by the substances described in this invention was measured in a cell-based assay using […] as the substrate for the AKR1C3 (Halim, M., Yee, D. J., and Sames, D., J. AM. CHEM. SOC. 130, 14123-14128 (2008) and Yee, D. J., Balsanek, V., Bauman, D. R., Penning, T. M., and Sames, D., Proc. Natl. Acad. Sci. USA 103, 13304-13309 (2006)) (cf. Example 48).
The cell system used was HEK293 cells (ATCC, USA) (cell culture medium: DMEM, 1.5 g of glucose, 10% FCS, PSG). The cells were transfected with an AKR1C3 expression plasmid (pCMV6-AC-AKR1C3, GenBank Accession No. NM_003739.4) overnight (X-tremeGENE HP, Roche). The next morning, the cells were sown into black 96-well culture plates with a cell density of 40 000 cells/well (Greiner Bio-One, Frickenhausen, Germany). 7 h later, the cells were incubated with the test substances (dissolved in 100× concentration in DMSO, final concentration between 10^−11M and 10^−5M) and […] (dissolved in cell culture medium, final concentration 5×10^−6M) overnight. The following morning, the fluorescence of coumberol was measured at 535 nm (excitation at 355 nm) with a suitable measuring instrument (Mithras, from Berthold). […] The data were normalized (transfected cells without inhibitor, only DMSO=0% inhibition; transfected cells, 10 μM EM-1404 inhibitor [F. Labrie et al. U.S. Pat. No. 6,541,463, 2003]=100% inhibition) and IC50 values were calculated by a 4-parameter fit.

Human CYP17A1 = Human CYP17A1 (Homo sapiens (Human), UniProt P05093); experiment: Inhibition of Cyp17A1 (recombinant enzyme, 3H-progesterone conversion, HPLC); format: biochemical; settings: up to a substance concentration of 20 μM where stated
Protocol: The inhibition of CYP17A1 by the test compounds was evaluated by means of recombinant enzyme. Human CYP17A1 was expressed in E. coli (Ehmer, P. B. et al.; J. Steroid Biochem. Mol. […] After evaporating the organic phase, the steroids were taken up in acetonitrile. 16α-Hydroxyprogesterone, 17α-hydroxyprogesterone and progesterone were separated with acetonitrile/water (45:55) as mobile phase on a C18 reverse phase chromatography column (Nucleodur C18 Gravity, 3 μm, Macherey-Nagel, Düren) in an HPLC System (Agilent 1100 Series, Agilent Technologies, Waldbronn). Detection and quantification of the steroids were conducted by means of a Radioflow detector (Berthold Technologies, Bad Wildbad). The inhibition was calculated by the following formula: [formula] Each value was calculated from at least three independent experiments.

[3] = Kinetic solubility by laser nephelometry; format: physicochemical; settings: kinetic from dmso stock
Protocol: The kinetic solubilities of the inventive substances were determined by laser nephelometry.
The data were recorded using the following instruments:
Liquid handling system: Hamilton Star
Nephelometer: Nepheloskan Ascent
The following chemicals and materials were used: […]
disodium hydrogenphosphate dihydrate potassium dihydrogenphosphate
Preparation of phosphate buffer pH 7.4:
• Solution 1: 9.71 g of disodium hydrogenphosphate dihydrate and • 1.65 g of potassium dihydrogenphosphate dissolved in 1 liter of water • Solution 2: 10 mg of gum arabic dissolved in 1 liter of water […]
150 ml of solution 1 and 100 ml of solution 2 were diluted with 750 ml of water.
150 μl of a 10 mM DMSO stock solution were pipetted into a plate (deep-well plate, Abgene, PP, 1.2 ml). The stock solution was diluted with DMSO, which led to a new multi-titre plate (MTP, Greiner bio-one, PS, V-Form) with eight concentrations: 10/5/2.5/1.25/0.625/0.313/0.156 and 0.078 mM. 261 μl of phosphate buffer were transferred into a further plate (96 cliniplate, UB Thermo Electron Corporation) and admixed with 9 μl of the DMSO stock solutions.
The concentration of the DMSO cosolvent was kept constant at 3%.
The plates obtained (cliniplates) were analysed in the nephelometer.

recombinant human AKR1C2 = recombinant human AKR1C2 (Homo sapiens (Human), UniProt P52895); experiment: AKR1C2 inhibition (NADPH consumption, phenanthrenequinone); format: biochemical
Protocol: (§1) The AKR1C1/AKR1C2/AKR1C4-inhibitory action of the inventive substances, for determination of the selectivity of this invention, was measured in the assay described in the paragraphs which follow. Essentially, the enzyme activity is measured by the quantification of NADPH (nicotinamide adenine dinucleotide phosphate) consumption in the conversion of phenanthrenequinone (PQ) by the AKR1C enzymes. […] NM_001353.5, NM_001354, NM_001818). This was expressed as the GST (glutathione S-transferase) fusion protein in E. coli and purified by means of glutathione-Sepharose affinity chromatography. The GST was removed by thrombin digestion with subsequent size exclusion chromatography (Dufort, I., Rheault, P., Huang, X F., Soucy, P., and Luu-The, V., Endocrinology 140, 568-574 (1999)). […] The mixture was incubated at 37° C. for 3 h, and the fluorescence was determined at the end of the reaction. […] Typically, the test substances were tested on the same microtitre plate in […] in the range from 10 μM to 1 pM (10 μM, 1 μM, 100 nM, 10 nM, 1 nM, 100 pM, 10 pM, 1 pM). As described, the pharmacological substances claimed were tested for their inhibitory effect on AKR1C enzymes 1, 2 and 4 (see Table 4).

recombinant human AKR1C4 = recombinant human AKR1C4 (Homo sapiens (Human), UniProt P17516); experiment: AKR1C4 inhibition (NADPH consumption, phenanthrenequinone); format: biochemical
Protocol: as §1

recombinant human AKR1C1 = recombinant human AKR1C1 (Homo sapiens (Human), UniProt Q04828); experiment: AKR1C1 inhibition (NADPH consumption, phenanthrenequinone); format: biochemical
Protocol: as §1

T1 sequence (P42330 whole entry): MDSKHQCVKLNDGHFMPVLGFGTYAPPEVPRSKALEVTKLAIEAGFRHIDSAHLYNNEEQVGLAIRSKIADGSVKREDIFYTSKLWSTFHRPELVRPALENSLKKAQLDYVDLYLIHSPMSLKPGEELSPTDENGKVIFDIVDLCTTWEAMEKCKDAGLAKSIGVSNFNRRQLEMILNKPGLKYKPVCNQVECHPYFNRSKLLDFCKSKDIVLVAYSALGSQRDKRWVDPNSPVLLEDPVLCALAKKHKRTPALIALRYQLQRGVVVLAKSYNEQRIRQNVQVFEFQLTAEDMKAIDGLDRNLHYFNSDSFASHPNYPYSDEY
Chain of recombinant human AKR1C2 (P52895 whole entry, the tested form may be a part): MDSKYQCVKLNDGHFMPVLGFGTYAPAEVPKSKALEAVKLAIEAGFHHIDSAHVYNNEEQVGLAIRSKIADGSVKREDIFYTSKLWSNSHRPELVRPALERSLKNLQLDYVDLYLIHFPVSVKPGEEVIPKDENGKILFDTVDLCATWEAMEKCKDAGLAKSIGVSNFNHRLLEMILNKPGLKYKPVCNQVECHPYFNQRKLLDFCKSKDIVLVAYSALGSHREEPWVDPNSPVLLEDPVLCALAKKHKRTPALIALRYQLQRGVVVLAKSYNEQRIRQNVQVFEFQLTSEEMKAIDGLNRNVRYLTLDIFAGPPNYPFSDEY
Chain of recombinant human AKR1C4 (P17516 whole entry): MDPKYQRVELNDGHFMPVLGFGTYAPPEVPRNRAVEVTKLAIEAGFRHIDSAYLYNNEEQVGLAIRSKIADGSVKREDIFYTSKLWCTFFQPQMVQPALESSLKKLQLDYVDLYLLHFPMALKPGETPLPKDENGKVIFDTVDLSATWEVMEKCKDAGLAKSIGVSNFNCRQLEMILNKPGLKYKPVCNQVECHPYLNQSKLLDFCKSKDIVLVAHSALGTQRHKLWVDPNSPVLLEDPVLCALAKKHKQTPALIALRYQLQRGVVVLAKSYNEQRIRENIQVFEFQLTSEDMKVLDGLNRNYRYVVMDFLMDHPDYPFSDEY
Chain of recombinant human AKR1C1 (Q04828 whole entry): as the sequence (P52895 whole entry, the tested form may be a part) above, with V38T, H47R, V54L, S87C, M151V, H170R, L172Q counted along it
Chain of Human CYP17A1 (P05093 whole entry): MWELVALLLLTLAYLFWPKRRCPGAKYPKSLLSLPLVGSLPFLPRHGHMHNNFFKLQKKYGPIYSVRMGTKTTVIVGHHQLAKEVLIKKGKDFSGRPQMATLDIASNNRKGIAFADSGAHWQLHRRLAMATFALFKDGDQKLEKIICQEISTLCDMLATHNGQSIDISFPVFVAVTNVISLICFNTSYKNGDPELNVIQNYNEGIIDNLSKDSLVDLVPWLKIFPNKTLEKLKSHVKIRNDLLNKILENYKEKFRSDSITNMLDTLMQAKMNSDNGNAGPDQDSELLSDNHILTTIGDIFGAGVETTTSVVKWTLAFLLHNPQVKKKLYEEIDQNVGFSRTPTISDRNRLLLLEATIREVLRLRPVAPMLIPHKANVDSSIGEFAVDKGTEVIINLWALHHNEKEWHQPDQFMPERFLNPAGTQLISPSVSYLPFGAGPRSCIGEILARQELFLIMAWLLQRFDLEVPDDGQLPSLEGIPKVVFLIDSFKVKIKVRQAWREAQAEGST

| SMILES | IC50 (AKR1C3 [1]) | IC50 (AKR1C3 [2]) | solubility ([3]; pH 7.4, aqueous buffer) | further results |
| --- | --- | --- | --- | --- |
| CC(C)[C@H](CO)NC(=O)c1ccc2c(c1)CC[C@@H]1[C@@H]2CC[C@]2(C)C(c3cncc(F)c3)=CC[C@@H]12 [Example 16, 17-(5-fluoropyridin-3-yl)-N—[(R)-1-(hydroxymethyl)-2-methylpropyl]oestra-1,3,5(10),16-tetraene-3-carboxamide] | 15 nM and 42 nM | 97 nM and 74 nM |  |  |
| C[C@]12CC[C@@H]3c4ccc(C(=O)N5CCC[C@@H](O)C5)cc4CC[C@H]3[C@@H]1CC=C2c1cncc(F)c1 [Example 17, 17-(5-fluoropyridin-3-yl)oestra-1,3,5(10),16-tetraen-3-yl (R)-3-hydroxypiperidin-1-yl ketone] | 29 nM and 20 nM | 34 nM and 28 nM |  |  |
| C[C@]12CC[C@H](O)CC1=CC[C@@H]1[C@@H]2CC[C@]2(C)C(c3cccnc3)=CC[C@@H]12 [Abiraterone, reference compound] |  |  |  | Inhibition of Cyp17A1 (in words) (Human CYP17A1): active |
| C[C@]12C[C@H](F)[C@@H]3c4ccc(C(N)=O)cc4CC[C@H]3[C@@H]1CC=C2c1cncc(F)c1 [Example 7, 11β-fluoro-17-(5-fluoropyridin-3-yl)oestra-1,3,5(10),16-tetraene-3-carboxamide] | 27 nM | 83 nM and 150 nM |  |  |
| C[C@]12CC[C@@H]3c4ccc(C(=O)NC[C@H](O)CO)cc4CC[C@H]3[C@@H]1CC=C2c1cncc(F)c1 [Example 33, N—[(S)-2,3-dihydroxypropyl]-17-(5-fluoropyridin-3-yl)oestra-1,3,5(10),16-tetraene-3-carboxamide] | 4 nM and 5 nM |  |  | solubility ([3]; phosphate buffer with 3% DMSO, aqueous buffer, phosphate buffer pH 7.4, 3% DMSO, read-out: Nephelometric solubility at pH = 7.4): 80 µg/mL (≈ 178 µM) |
| O=C1OC(c2ccc(O)cc2)(c2ccc(O)cc2)c2ccccc21 [phenolphthalein] |  |  |  | Inhibition of AKR1C2 (in words) (recombinant human AKR1C2): shows inhibition; IC50 (recombinant human AKR1C2; tested up to 10 μM, read-out: AKR1C2 enzyme inhibition IC50): 554 nM and 438 nM; Inhibition of AKR1C4 (in words) (recombinant human AKR1C4): shows inhibition; IC50 (recombinant human AKR1C4; tested up to 10 μM, read-out: AKR1C4 enzyme inhibition IC50): 21 nM and 17 nM; Inhibition of AKR1C1 (in words) (recombinant human AKR1C1): shows inhibition; IC50 (recombinant human AKR1C1; tested up to 10 μM, read-out: AKR1C1 enzyme inhibition IC50): 46 nM and 60 nM |
| C[C@@H](O)CNC(=O)c1ccc2c(c1)CC[C@@H]1[C@@H]2CC[C@]2(C)C(c3cncc(F)c3)=CC[C@@H]12 [Example 38, 17-(5-fluoropyridin-3-yl)-N—[(R)-2-hydroxypropyl]oestra-1,3,5(10),16-tetraene-3-carboxamide] | 4 nM |  | 145 µg/mL (≈ 334 µM) |  |
| CNC(=O)[C@@H]1CCCN1C(=O)c1ccc2c(c1)CC[C@@H]1[C@@H]2CC[C@]2(C)C(c3cncc(F)c3)=CC[C@@H]12 [Example 29, 1-{[17-(5-fluoropyridin-3-yl)oestra-1,3,5(10),16-tetraen-3-yl]carbonyl}-N-methyl-L-prolinamide] | 10 nM |  | 24 µg/mL (≈ 49.2 µM) |  |
| CC1(CNC(=O)c2ccc3c(c2)CC[C@@H]2[C@@H]3CC[C@]3(C)C(c4cncc(F)c4)=CC[C@@H]23)COC1 [Example 43, 17-(5-fluoropyridin-3-yl)-N-[(3-methyloxetan-3-yl)methyl]oestra-1,3,5(10),16-tetraene-3-carboxamide] | 7 nM |  | 154 µg/mL (≈ 334 µM) |  |
| C[C@@H](CO)CCNC(=O)c1ccc2c(c1)CC[C@@H]1[C@@H]2CC[C@]2(C)C(c3cncc(F)c3)=CC[C@@H]12 [Example 12, 17-(5-fluoropyridin-3-yl)-N—[(R)-3-(hydroxymethyl)butyl]estra-1,3,5(10),16-tetraene-3-carboxamide] | 21 nM and 20 nM | 68 nM and 96 nM and 43 nM and 23 nM |  |  |
| C[C@]12CC[C@@H]3c4ccc(C(=O)NCCc5nnn[nH]5)cc4CC[C@H]3[C@@H]1CC=C2c1cncc(F)c1 [Example 21, 17-(5-fluoropyridin-3-yl)-N-[2-(1H-tetrazol-5-yl)ethyl]oestra-1,3,5(10),16-tetraene-3-carboxamide] | 5 nM |  | 158 µg/mL (≈ 334 µM) |  |
| C[C@]12CC[C@@H]3c4ccc(C(=O)NCc5nnn[nH]5)cc4CC[C@H]3[C@@H]1CC=C2c1cncc(F)c1 [Example 22, 17-(5-fluoropyridin-3-yl)-N-(1H-tetrazol-5-ylmethyl)oestra-1,3,5(10),16-tetraene-3-carboxamide] | 5 nM |  | 153 µg/mL (≈ 334 µM) |  |
| C[C@]12CC[C@@H]3c4ccc(C(N)=O)cc4CC[C@H]3[C@@H]1CC=C2c1cccnc1 [Example 1, 17-(pyridin-3-yl)oestra-1,3,5(10),16-tetraene-3-carboxamide] | 5 nM and 6 nM | 27 nM and 28 nM and 66 nM and 13 nM |  | Inhibition of AKR1C2 (in words) (recombinant human AKR1C2): no inhibition; AKR1C2 enzyme inhibition IC50 (recombinant human AKR1C2; tested up to 10 μM): no effect; Inhibition of AKR1C4 (in words) (recombinant human AKR1C4): no inhibition; AKR1C4 enzyme inhibition IC50 (recombinant human AKR1C4; tested up to 10 μM): no effect; Inhibition of AKR1C1 (in words) (recombinant human AKR1C1): no inhibition; AKR1C1 enzyme inhibition IC50 (recombinant human AKR1C1; tested up to 10 μM): no effect |
